The results in this text go back to BindingDB's records for patent US20230348426 (Bristol-Myers Squibb, 2023).

Molecules are shown by their SMILES.

The target in one assay is T1, fMet-Leu-Phe receptor (Homo sapiens, UniProt P21462).
T1 sequence (P21462 whole entry): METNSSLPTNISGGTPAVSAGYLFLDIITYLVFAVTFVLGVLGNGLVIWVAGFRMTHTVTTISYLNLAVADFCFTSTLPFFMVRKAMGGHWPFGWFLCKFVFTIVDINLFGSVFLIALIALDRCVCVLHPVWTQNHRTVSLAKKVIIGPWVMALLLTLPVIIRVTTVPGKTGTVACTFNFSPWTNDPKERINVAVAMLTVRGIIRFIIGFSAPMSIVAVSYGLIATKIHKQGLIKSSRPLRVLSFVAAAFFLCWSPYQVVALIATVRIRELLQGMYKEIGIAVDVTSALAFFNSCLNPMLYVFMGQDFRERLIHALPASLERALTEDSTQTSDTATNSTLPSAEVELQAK
In words: FPR2 and FPR1 Cyclic Adenosine Monophosphate (cAMP) Assays. As to the method: (§1) A mixture of forskolin (5 M final for FPR2 or 10 M final for FPR1) and IBMX (200 M final) were added to 384-well Proxiplates (Perkin-Elmer) pre-dotted with test compounds in DMSO (1% final) at final concentrations in the range of 0.020 nM to 100 µM. Chinese Hamster Ovary cells (CHO) overexpressing human FPR1 or human FPR2 receptors were cultured in F-12 (Ham s) medium supplemented with 10% qualified FBS, 250 µg/ml zeocin and 300 µg/ml hygromycin (Life Technologies). Reactions were initiated by adding 2,000 human FPR2 cells per well or 4,000 human FPR1 cells per well in Dulbecco s PBS (with calcium and magnesium) (Life Technologies) supplemented with 0.1% BSA (Perkin-Elmer). The reaction mixtures were incubated for 30 min at room temperature. The level of intracellular cAMP was determined using the HTRF HiRange cAMP assay reagent kit (Cisbio) according to manufacturer s instruction. Solutions of cryptate conjugated anti-cAMP and d2 flurorophore-labelled cAMP were made in a supplied lysis buffer separately. Upon completion of the reaction, the cells were lysed with equal volume of the d2-cAMP solution and anti-cAMP solution. […] The potency and activity of a compound to inhibit cAMP production was then determined by fitting to a 4-parametric logistic equation from a plot of cAMP level versus compound concentrations.

The target in assay [1] is T2, N-formyl peptide receptor 2 (Homo sapiens, UniProt P25090).
T2 sequence (P25090 whole entry): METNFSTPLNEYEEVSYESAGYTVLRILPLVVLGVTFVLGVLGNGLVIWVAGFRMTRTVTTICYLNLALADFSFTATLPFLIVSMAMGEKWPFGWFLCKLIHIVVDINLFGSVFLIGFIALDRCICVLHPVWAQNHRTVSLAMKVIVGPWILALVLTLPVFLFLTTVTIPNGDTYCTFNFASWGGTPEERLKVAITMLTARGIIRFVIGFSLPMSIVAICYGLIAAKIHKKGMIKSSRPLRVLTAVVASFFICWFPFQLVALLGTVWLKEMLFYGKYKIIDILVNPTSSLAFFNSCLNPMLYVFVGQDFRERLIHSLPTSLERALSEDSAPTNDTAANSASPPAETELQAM
The assay is described as above. As to the method: as §1

Regarding `COc1cc(F)c([C@@H]2CN(c3nc(N4CCCS4(=O)=O)ccc3F)C(=O)[C@H]2NC(=O)c2ccc(OC(F)(F)F)cc2)c(F)c1` [US20230348426, Example 289], the EC50 (as a rule, the concentration needed to bring the measured effect to its halfway point) was determined as 62 nM at fMet-Leu-Phe receptor and 8.6 nM in assay [1].

In the case of `COc1cc(F)c([C@@H]2CN(c3nc(N4CC(CO)OCC4=O)ccc3F)C(=O)[C@H]2NC(=O)c2ccc(OC(F)F)cc2)c(F)c1` (some centres not stated) [US20230348426, Example 331], the values for the EC50 (on fMet-Leu-Phe receptor; in assay [1]) were 5600 nM and 13 nM, respectively.

In the case of `COc1cc(F)c([C@@H]2CN(c3c(C)ccn(C4CCN(C)C4)c3=O)C(=O)[C@H]2NC(=O)c2ccc(Cl)cc2)c(F)c1` (some centres not stated) [US20230348426, Example 510], the figures for the EC50 (on fMet-Leu-Phe receptor; in assay [1]) were 290 nM and 3.5 nM, respectively.

For the compound `COc1cc(C2CCN(C)CC2)nc(N2C(=O)[C@@H](NC(=O)c3ccc(Cl)cc3)[C@H](c3c(F)cc(OC)cc3F)[C@H]2C)c1` [US20230348426, Example 558], the EC50 on fMet-Leu-Phe receptor came to 2000 nM; in assay [1], 6.4 nM.

Regarding `COc1cc(F)c([C@@H]2CN(c3c(C)ccn(C4CCS(=O)(=O)CC4)c3=O)C(=O)[C@H]2NC(=O)c2ccc(Cl)cc2)c(F)c1` [US20230348426, Example 625], the results for the EC50 (at fMet-Leu-Phe receptor; in assay [1]) were 12 nM and 1.9 nM, respectively.

`COc1cc(F)c([C@@H]2CN(c3c(C)ccn(CC(O)C4CC4)c3=O)C(=O)[C@H]2NC(=O)c2ccc(Cl)cc2)c(F)c1` (some centres not stated) [US20230348426, Example 684]: the EC50 on fMet-Leu-Phe receptor was found to be 5 nM; in assay [1] it was 7 nM.
